Experimental findings from patent US12630544B2, “Compound, α-synuclein aggregate binder, and use thereof” (NATIONAL INSTITUTES FOR QUANTUM SCIENCE AND TECHNOLOGY, priority 2020, dated 2026) are described below.

In test [1] the target is T1, α-synuclein aggregates (Mus musculus, UniProt O55042).
T1 construct: from tissue; host or cells: brain of C57/BL/6 mouse inoculated in the striatum with recombinant (E. coli) mouse α-synuclein fibrils; sections or living animal
The test can be described thus: In vivo PET imaging of mouse brain (α-synuclein fibril-inoculated mouse vs physiological saline-injected mouse). The following applies: α-synuclein fibril-inoculated model mouse, intravenous injection. How it is done:
First, mouse α-synuclein was expressed in and extracted from E. coli as a recombinant protein, and then incubated in vitro to form insoluble α-synuclein aggregates. The α-synuclein aggregates were then inoculated into the striatum of a mouse. […] Note that the inoculation of the α-synuclein aggregates into the striatum of the mouse was carried out in the following manner. First, hair on the head of a 9-week-old C57/BL/6 male mouse which had been anesthetized with 1.5% (v/v) isoflurane was removed, and the scalp was disinfected with isodine, followed by application of xylocaine and incision in the scalp to expose the skull. Then, a hole was drilled in the skull at a position of 0.05 mm posterior to the bregma and 2 mm lateral to the midline, and 3 μl of an α-synuclein fibril solution (mouse α-synuclein fibril (4 mg/ml) in saline) was injected into a position […] ventral to the brain surface with use of a glass pipette. The scalp was then returned and sutured.
PET scanning was carried out with use of a micro PET Focus 220 animal scanner (Siemens Medical Solutions), which provided 95 slices each having a thickness of 0.851 mm (center thickness), a […]. Before the scanning, an α-synuclein fibril-inoculated mouse and a physiological saline-injected mouse (control) were each anesthetized with 1.5% (v/v) isoflurane. […]

The target of test [2] is homogenate of the brain of the AD patient (tau aggregates or amyloid β aggregates). The test can be described thus: In vitro binding test, homogenate of the brain of the AD patient. The settings on record: [18F]SPAL-T-06 5 nM displaced by non-labeled SPAL-T-06 0.01 nM to 1 μM; frontal cortex; room temperature 30 minutes. Further details: species or system human. As to the method:
(§1) Fresh frozen tissue from the amygdala in the brain of a DLB patient and fresh frozen tissue from the frontal cortex in the brain of an AD patient were used. To each fresh frozen brain tissue, zirconia beads (ZB-20, TOMY) and a buffer solution which was 10 times the wet weight of the tissue were added. A mixture thus obtained was smashed with use of Micro Smash (MS-100R, TOMY) and then stored at −80° C. A homogenate of the brain of the DLB patient or a homogenate of the brain of the AD patient, [^18F]SPAL-T-06 (final concentration: 5 nM), and non-labeled SPAL-T-06 (final concentration: 0.01 nM to 1 μM) were mixed into a Tris-HCl buffer solution (containing 20% ethanol). Incubation was carried out at room temperature for 30 minutes, and then B/F separation (B: bound ligand, F: free ligand) was carried out by suction filtration and washing. Thereafter, radioactivity captured on a glass filter was measured with use of a gamma counter (2480WIZARD2, ParkinElmer). With regard to the concentration of each non-labeled SPAL-T-06, a test was carried out in triplicate. Results were analyzed with use of Prism 6J (GraphPad), displacement curves of the tested compounds were obtained, and then IC50 of each was calculated.

The target in test [3] is T2, lesions caused by phosphorylated α-synuclein (Homo sapiens, UniProt P37840).
T2 construct: α-synuclein aggregates formed in the brain of the DLB patient; from tissue; host or cells: post-mortem human brain: amygdala of DLB patient (sections or homogenate); cerebellum of MSA patient
The test can be described thus: In vitro autoradiography of human brain sections (DLB, MSA, healthy subject). It counts as binding. The following applies: 10 nM. The source says: Postmortem human brains were obtained in autopsies carried out with respect to a DLB patient, a multiple system atrophy (MSA) patient, and a healthy subject. In a cryostat (HM560, Carl Zeiss), frozen tissue from the DLB patient and frozen tissue from the healthy subject were sliced into sections each having a thickness of 20 μm. Brain tissue from the MSA patient was fixed in 10% neutral buffered formalin, embedded in a paraffin block, and sliced into sections each having a thickness of 6 μm.
Postfixed fresh frozen sections of amygdala tissue from the brain of the DLB patient and the frontal cortex tissue from the brain of the healthy subject and deparaffinized sections of formalin-fixed paraffin-embedded cerebellum tissue from the brain of the MSA patient were used. Each brain tissue section and [^18F]SPAL-T-06 (final concentration: 10 nM) were incubated in 50 mM Tris-HCl containing 20% ethanol at room temperature for 1 hour. In order to detect specific binding, the brain tissue section was also incubated in 50 mM Tris-HCl (containing 20% ethanol) containing [^18F]SPAL-T-06 (final concentration: 10 nM) and non-labeled SPAL-T-06 (final concentration: 10 μM). Subsequently, the section was washed with 50 mM Tris-HCl (containing 20% EtOH) at 4° C. for 2 minutes. This washing was carried out twice. Thereafter, the section was rinsed with MilliQ. […]

Test [4] can be described thus: Ex vivo imaging (autoradiography) of brain of physiological saline-injected mouse. Format: in vivo. The settings on record: intravenous, brain collected 40 minutes after administration. How it is done:
A physiological saline-injected mouse was anesthetized with 1.5% (v/v) isoflurane. Then, [^18F]SPAL-T-06 (28.9 MBq) was intravenously injected into the physiological saline-injected mouse. Forty minutes after the administration of [^18F]SPAL-T-06, the brain was collected and frozen. In a cryostat (HM560), frozen coronal sections each having a thickness of 20 μm and respectively including positions at 0.50 mm, −0.46 mm, −1.94 mm, −3.16 mm, and −6.64 mm from the bregma were prepared. Each section was air-dried, and then placed in contact with an imaging plate for 15 minutes in a cassette. Thereafter, autoradiographs were obtained with use of BAS-5000 (Fuji Film).

Test [5] concerns the target T3, homogenate of the brain of the DLB patient which was rich in α-synuclein lesions (Homo sapiens, UniProt P37840).
T3 construct: α-synuclein aggregates formed in the brain of the DLB patient; from tissue; host or cells: post-mortem human brain: amygdala of DLB patient (sections or homogenate); cerebellum of MSA patient
In words: In vitro binding test, homogenate of the brain of the DLB patient. How it is done: as §1

The test system of test [6] is α-synuclein aggregates. In words: In vivo PET imaging of α-synuclein fibril-inoculated marmoset brain. The following applies: intravenous injection.

SMILES strings stand for the structures.

On to `CNc1cnc(C#C/C=C/c2nc3ccc(OCC(O)C[18F])cc3s2)cn1` (centres unmarked) [[^18F]SPAL-T-06, [^18F]-(E)-1-fluoro-3-((2-(4-(5-(methylamino)pyrazin-2-yl)but-1-en-3-yn-1-yl)benzo[d]thiazol-6-yl)oxy)propan-2-ol], for which, on α-synuclein aggregates [1], the “accumulation in striatum and cerebral cortex rich in α-synuclein lesions (PET)” value was “clear accumulation”. Also, the IC50 worked out at 10.9 nM in test [2] and 1.58 nM in test [5] ([18F]SPAL-T-06 5 nM displaced by non-labeled SPAL-T-06 0.01 nM to 1 μM, amygdala, room temperature 30 minutes). Moreover, the “binding to areas rich in lesions caused by phosphorylated α-synuclein (autoradiography)” value in test [3] (DLB amygdala and MSA cerebellum sections, 1 hour) is “bound to areas in the brains of the DLB patient and the MSA patient which were rich in lesions caused by phosphorylated α-synuclein”. The “non-specific binding in gray matter and white matter of healthy subject frontal cortex (autoradiography)” value in test [3] (section of frontal cortex of healthy subject) is “hardly observed”. Also, the “nonspecific accumulation in the white matter area (ex vivo autoradiography)” value in test [4] is recorded as “not seen”. The “binding selectivity with respect to α-synuclein aggregates versus tau or amyloid β aggregates (homogenate binding)” value in test [5] (DLB versus AD brain homogenate) was “high binding selectivity”. In addition, the “accumulation in the caudate nucleus rich in α-synuclein lesions (PET)” value with α-synuclein aggregates [6] is given as “clear accumulation”.

By IC50 is commonly meant the concentration needed to halve the response being measured. A higher IC50 goes with lower potency.
